Series [1] concerns the target T1, Fibroblast growth factor receptor 1 (Homo sapiens, UniProt P11362). In words: Inhibition of full length nanoluc-fused FGFR1 transfected in HEK293T cells assessed as target engagement incubated for 3 hrs in presence of K10 tracer by Nano BRET assay. It counts as cell-based.
In series [2] the target is T2, Fibroblast growth factor receptor 4 (Homo sapiens, UniProt P22455). Nature of the series: Inhibition of N-terminal GST tagged cytoplasmic domain human FGFR4 (460 to 802 residues) expressed in Escherichia coli BL21 (DE3) using CSox as substrate assessed as residual activity at 5 uM incubated for 240 mins in presence of ATP by hotspot assay relative to control.
Target sequence in this assay (P22455 22-802 limits assumed): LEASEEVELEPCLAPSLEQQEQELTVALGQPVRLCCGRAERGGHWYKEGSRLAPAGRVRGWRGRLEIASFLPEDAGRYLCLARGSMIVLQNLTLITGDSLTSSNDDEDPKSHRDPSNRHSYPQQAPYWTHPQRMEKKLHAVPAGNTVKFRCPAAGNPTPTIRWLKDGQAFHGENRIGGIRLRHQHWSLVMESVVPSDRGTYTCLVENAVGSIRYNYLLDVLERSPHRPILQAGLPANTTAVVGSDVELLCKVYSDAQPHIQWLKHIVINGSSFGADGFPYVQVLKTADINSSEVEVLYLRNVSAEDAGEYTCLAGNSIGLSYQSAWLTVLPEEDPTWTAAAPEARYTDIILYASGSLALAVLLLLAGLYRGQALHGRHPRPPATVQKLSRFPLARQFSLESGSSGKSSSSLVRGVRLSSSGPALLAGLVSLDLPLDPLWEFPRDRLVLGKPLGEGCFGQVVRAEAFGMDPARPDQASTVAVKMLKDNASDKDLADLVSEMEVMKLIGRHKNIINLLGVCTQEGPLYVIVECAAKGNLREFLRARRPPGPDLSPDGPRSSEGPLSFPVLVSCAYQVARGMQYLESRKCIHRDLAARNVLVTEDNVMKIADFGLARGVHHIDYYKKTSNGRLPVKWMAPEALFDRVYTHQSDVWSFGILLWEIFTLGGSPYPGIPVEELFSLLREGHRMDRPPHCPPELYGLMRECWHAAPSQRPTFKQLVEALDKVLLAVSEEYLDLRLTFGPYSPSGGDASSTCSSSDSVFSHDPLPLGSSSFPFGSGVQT
The target in series [3] is T2, Fibroblast growth factor receptor 4. In words: Inhibition of N-terminal GST tagged cytoplasmic domain human FGFR4 (460 to 802 residues) expressed in Escherichia coli BL21 (DE3) using CSox as substrate incubated for 240 mins in presence of ATP by hotspot assay.
Target sequence in this assay (P22455 whole entry, the tested form may be a part): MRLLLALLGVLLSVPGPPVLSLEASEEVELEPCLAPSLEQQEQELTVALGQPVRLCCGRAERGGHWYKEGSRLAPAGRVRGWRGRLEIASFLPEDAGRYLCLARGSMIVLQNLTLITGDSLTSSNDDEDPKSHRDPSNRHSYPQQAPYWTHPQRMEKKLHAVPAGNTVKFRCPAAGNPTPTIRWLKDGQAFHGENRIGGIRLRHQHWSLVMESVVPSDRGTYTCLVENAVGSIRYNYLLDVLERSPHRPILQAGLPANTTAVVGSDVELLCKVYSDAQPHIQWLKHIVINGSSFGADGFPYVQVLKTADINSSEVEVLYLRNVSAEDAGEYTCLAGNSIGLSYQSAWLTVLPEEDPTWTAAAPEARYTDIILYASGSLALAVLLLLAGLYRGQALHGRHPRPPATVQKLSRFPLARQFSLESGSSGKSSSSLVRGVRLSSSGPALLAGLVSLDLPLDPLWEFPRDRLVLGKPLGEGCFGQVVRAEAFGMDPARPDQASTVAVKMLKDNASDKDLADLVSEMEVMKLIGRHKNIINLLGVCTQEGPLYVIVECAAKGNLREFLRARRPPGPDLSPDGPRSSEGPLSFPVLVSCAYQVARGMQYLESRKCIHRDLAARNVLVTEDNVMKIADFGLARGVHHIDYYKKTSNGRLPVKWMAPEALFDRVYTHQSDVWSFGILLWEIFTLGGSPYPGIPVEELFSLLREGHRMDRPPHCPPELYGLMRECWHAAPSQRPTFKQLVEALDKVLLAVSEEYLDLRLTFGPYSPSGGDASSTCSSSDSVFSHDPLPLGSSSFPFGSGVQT
Series [4] can be described thus: Metabolic stability in human liver microsomes assessed as compound remaining measured after 2 hrs in presence of NADPH regenerating system measured upto 120 mins by LC-MS analysis. It counts as ADME, Microsome. The following applies: read-out: Stability.
Series [5] has as its target T3, Fibroblast growth factor receptor 3 (Homo sapiens, UniProt P22607). Nature of the series: Binding affinity to FGFR3 (unknown origin) assessed as change in melting temperature by differential scanning fluorimetry analysis.
Series [6] addresses T4, Fibroblast growth factor receptor 2 (Homo sapiens, UniProt P21802). In words: Inhibition of full length nanoluc-fused FGFR2 transfected in HEK293T cells assessed as target engagement incubated for 3 hrs in presence of K10 tracer by Nano BRET assay. It counts as cell-based.
Series [7] concerns the target T3, Fibroblast growth factor receptor 3. Nature of the series: Inhibition of full length nanoluc-fused FGFR3 transfected in HEK293T cells assessed as target engagement incubated for 3 hrs in presence of K10 tracer by Nano BRET assay. It counts as cell-based.
Target sequence in this assay (P22607 whole entry, the tested form may be a part): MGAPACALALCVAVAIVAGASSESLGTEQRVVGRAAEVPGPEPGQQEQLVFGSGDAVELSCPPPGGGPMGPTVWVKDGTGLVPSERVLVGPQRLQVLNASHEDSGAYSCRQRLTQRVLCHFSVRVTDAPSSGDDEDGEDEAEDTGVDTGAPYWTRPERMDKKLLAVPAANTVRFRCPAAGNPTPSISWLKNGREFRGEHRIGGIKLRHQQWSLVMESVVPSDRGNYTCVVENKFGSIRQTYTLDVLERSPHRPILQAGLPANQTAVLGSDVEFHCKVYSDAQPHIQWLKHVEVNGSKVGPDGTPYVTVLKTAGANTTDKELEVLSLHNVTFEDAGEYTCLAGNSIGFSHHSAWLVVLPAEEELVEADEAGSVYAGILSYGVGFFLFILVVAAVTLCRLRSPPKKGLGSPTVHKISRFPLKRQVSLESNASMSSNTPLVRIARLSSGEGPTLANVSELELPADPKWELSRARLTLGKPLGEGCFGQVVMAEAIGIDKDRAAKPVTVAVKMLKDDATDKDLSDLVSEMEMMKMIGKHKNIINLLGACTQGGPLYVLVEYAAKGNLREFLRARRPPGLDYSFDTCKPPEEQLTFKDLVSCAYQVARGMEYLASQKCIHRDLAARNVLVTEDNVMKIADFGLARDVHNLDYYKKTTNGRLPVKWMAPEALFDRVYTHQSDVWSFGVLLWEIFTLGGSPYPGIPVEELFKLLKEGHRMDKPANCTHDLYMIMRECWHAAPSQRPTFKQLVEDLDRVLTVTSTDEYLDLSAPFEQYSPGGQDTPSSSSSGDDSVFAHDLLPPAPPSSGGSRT
For series [8], the target named is T2, Fibroblast growth factor receptor 4. In words: Inhibition of full length nanoluc-fused FGFR4 transfected in HEK293T cells assessed as target engagement incubated for 3 hrs in presence of K10 tracer by Nano BRET assay. It counts as cell-based.
Target sequence in this assay (P22455 whole entry, the tested form may be a part): as the sequence (P22455 whole entry, the tested form may be a part) above
For series [9], the system named is Hep 3B2. In words: cells. The following applies: Homo sapiens, Hep3B, 96 h.
Description: Antiproliferative activity against human Hep3B cells measured after 4 days by Celltiter-glo based luminescent assay
Series [10] addresses T4, Fibroblast growth factor receptor 2. Nature of the series: Inhibition of human FGFR2 in presence of ATP by hotspot assay.
The target in series [11] is Ribosomal protein S6 kinase beta-2 (Homo sapiens, UniProt Q9UBS0). In words: Inhibition of human wild type S6K2 using RBER-CHKtide as substrate in presence of ATP by hotspot assay.
In series [12] the target is MAP kinase-activated protein kinase 3 (Homo sapiens, UniProt Q16644). Nature of the series: Inhibition of human MAPKAPK3 using KKLNRTLSVA as substrate in presence of ATP by hotspot assay.
The target of series [13] is T5, Dual specificity protein kinase TTK (Homo sapiens, UniProt P33981).
T5 sequence (P33981 whole entry): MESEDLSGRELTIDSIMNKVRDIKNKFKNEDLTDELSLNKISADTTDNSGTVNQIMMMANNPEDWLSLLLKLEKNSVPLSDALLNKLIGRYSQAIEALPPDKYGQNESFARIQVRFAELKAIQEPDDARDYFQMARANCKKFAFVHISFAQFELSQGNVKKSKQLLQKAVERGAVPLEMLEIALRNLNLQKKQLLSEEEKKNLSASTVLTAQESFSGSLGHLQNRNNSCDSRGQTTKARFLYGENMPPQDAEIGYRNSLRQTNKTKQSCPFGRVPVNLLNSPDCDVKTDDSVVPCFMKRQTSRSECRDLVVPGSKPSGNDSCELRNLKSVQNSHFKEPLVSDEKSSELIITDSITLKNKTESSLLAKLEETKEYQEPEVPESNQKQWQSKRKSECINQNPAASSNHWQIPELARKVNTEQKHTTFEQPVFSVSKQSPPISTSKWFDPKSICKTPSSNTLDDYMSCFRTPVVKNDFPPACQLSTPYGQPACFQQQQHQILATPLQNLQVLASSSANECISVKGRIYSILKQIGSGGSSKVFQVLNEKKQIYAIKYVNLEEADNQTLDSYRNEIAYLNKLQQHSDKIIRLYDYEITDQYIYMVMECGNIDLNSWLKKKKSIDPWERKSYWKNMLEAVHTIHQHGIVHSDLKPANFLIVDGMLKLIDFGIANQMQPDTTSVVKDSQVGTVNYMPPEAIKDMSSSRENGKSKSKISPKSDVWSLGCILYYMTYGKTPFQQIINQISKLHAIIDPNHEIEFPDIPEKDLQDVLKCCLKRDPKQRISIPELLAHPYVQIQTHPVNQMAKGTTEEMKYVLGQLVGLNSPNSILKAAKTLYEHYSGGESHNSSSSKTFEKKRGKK
In words: Inhibition of human wild type TTK using RBER-CHKtide as substrate in presence of ATP by hotspot assay.

Series [14] deals with T1, Fibroblast growth factor receptor 1. Nature of the series: Inhibition of human FGFR1 using poly[Glu:Tyr] (4:1) as substrate in presence of ATP by hotspot assay.
In series [15] the target is T2, Fibroblast growth factor receptor 4. In words: Binding affinity to N-terminal GST tagged cytoplasmic domain human FGFR4 (460 to 802 residues) expressed in Escherichia coli BL21 (DE3) assessed as inhibition constant using sox as substrate incubated for 30 mins followed by enzyme addition and measured after 120 mins in presence of ATP by PhosphoSens CSox-based continuous assay.
Target sequence in this assay (P22455 whole entry, the tested form may be a part): as the sequence (P22455 whole entry, the tested form may be a part) above

Series [16] concerns the target MAP kinase-activated protein kinase 2 (Homo sapiens, UniProt P49137). In words: Inhibition of human MAPKAPK2 using KKLNRTLSVA as substrate in presence of ATP by hotspot assay.
For series [17], the target named is T3, Fibroblast growth factor receptor 3. Nature of the series: Inhibition of human wild type FGFR3 using polyEY as substrate in presence of ATP by hotspot assay.
Target sequence in this assay (P22607 whole entry, the tested form may be a part): as the sequence (P22607 whole entry, the tested form may be a part) above
The target in series [18] is T2, Fibroblast growth factor receptor 4. Nature of the series: Inhibition of N-terminal GST tagged cytoplasmic domain human FGFR4 (460 to 802 residues) expressed in Escherichia coli BL21 (DE3) by phosphosen-csox based assay.
Target sequence in this assay (P22455 whole entry, the tested form may be a part): as the sequence (P22455 whole entry, the tested form may be a part) above

SMILES strings stand for the structures.

T4 sequence (P21802 whole entry, the tested form may be a part): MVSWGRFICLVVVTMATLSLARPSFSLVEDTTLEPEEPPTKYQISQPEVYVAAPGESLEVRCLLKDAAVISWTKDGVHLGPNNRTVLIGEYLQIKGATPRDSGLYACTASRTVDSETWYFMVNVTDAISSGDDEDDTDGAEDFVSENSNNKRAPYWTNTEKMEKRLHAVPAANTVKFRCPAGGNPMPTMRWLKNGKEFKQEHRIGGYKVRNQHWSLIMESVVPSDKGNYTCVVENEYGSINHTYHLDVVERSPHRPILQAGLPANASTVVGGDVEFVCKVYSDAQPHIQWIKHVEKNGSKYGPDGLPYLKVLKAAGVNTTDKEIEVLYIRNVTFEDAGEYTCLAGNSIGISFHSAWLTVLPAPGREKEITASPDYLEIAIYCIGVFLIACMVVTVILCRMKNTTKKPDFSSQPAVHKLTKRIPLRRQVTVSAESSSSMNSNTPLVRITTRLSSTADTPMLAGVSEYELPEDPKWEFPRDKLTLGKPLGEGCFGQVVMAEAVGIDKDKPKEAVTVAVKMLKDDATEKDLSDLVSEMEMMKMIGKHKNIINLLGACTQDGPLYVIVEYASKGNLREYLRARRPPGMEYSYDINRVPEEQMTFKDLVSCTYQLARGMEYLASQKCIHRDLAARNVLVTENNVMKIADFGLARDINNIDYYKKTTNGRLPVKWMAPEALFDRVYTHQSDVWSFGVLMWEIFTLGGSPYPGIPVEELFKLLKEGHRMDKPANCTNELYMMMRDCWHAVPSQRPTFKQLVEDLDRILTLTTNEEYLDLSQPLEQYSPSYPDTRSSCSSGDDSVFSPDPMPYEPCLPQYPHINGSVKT
T1 sequence (P11362 whole entry, the tested form may be a part): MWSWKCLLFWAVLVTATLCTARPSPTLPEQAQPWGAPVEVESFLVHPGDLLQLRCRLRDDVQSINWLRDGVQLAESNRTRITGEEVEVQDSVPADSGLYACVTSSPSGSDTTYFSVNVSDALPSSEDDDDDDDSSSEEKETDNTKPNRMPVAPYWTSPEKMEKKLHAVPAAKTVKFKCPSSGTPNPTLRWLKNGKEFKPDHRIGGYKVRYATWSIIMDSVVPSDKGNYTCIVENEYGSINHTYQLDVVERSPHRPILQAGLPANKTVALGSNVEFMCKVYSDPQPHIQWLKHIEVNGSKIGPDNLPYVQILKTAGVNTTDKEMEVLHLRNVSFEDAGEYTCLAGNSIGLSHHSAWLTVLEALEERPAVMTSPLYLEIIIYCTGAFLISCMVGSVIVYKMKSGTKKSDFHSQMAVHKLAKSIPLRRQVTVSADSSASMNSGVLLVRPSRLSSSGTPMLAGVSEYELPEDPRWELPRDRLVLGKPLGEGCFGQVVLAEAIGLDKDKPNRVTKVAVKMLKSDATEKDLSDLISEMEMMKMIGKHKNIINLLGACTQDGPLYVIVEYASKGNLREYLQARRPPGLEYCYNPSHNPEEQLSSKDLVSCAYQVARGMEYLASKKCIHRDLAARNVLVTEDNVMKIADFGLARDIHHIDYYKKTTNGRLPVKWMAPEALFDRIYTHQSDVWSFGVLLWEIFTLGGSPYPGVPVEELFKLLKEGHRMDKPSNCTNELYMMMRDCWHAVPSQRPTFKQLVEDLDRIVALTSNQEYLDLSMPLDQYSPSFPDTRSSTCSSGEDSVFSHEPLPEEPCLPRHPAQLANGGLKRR
Sequence of Ribosomal protein S6 kinase beta-2 (Q9UBS0 whole entry): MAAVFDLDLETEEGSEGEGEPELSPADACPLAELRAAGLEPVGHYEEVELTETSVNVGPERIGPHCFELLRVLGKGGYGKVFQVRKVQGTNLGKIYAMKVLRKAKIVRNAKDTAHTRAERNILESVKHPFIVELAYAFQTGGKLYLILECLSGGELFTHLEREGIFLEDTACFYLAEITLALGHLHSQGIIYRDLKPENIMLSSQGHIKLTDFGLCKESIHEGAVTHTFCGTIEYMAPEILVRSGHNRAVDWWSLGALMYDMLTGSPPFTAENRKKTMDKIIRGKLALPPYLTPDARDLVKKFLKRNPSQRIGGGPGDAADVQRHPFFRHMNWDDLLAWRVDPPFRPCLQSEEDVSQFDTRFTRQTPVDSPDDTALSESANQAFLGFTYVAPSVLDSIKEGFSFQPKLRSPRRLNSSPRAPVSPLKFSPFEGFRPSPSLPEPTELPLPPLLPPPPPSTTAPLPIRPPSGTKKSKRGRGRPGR
Sequence of MAP kinase-activated protein kinase 3 (Q16644 whole entry): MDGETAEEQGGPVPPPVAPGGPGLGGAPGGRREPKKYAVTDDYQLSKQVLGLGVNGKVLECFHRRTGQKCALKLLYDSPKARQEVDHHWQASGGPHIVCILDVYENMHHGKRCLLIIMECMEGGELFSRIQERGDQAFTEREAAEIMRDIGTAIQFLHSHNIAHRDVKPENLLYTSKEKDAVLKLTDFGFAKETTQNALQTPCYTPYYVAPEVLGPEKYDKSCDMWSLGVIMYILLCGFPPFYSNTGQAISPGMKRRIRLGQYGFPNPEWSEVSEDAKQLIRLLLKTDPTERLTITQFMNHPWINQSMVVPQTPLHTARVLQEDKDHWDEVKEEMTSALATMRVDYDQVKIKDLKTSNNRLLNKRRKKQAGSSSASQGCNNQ

For `COc1cc(OC)c(Cl)c(-c2ccc3nc(Nc4ncccc4[N+](=O)[O-])ncc3c2)c1Cl`, the EC50 was 867 nM in series [1]; 867 nM in series [6]; 1780 nM in series [7]; 2260 nM in series [8]; 1070 nM in [9]. Further, the Activity in series [2] came to 89.4%. In series [3], the concentration for half-maximal inhibition (IC50) came out at 1700 nM. Also, in series [4], the remaining at 2 h is greater than 80%. In addition, the ΔTm in series [5] is 4.5 °C.

As for `COc1cc(OC)cc(-c2ccc3nc(-n4ccc5cnc(Cl)nc54)ncc3c2)c1`, the IC50 in series [3] is greater than 5000 nM.

Turning to `COc1cc(OC)cc(-c2ccc3nc(Sc4ccnc(F)n4)ncc3c2)c1`, the Activity in series [2] was greater than 100%. Besides, the IC50 in series [3] was greater than 5000 nM.

In the case of `C=CC(=O)Nc1cccc(C)c1Nc1ncc2cc(-c3c(Cl)c(OC)cc(OC)c3Cl)ccc2n1`, the EC50 turned out to be 4260 nM in series [1], 3300 nM in series [6], 2240 nM in [7] and 62 nM in series [9].

Consider `COc1cc(OC)c(Cl)c(-c2ccc3ncncc3c2)c1Cl`, for which, in [3], the IC50 was 2090 nM.

With `COc1cc(OC)cc(-c2ccc3nc(Sc4ncccc4[N+](=O)[O-])ncc3c2)c1`, in [2], the Activity was 97.9%. Further, in series [3], the 50% inhibitory concentration (IC50) was greater than 5000 nM.

For the compound `COc1cc(OC)cc(-c2ccc3nc(-c4cccc5cnc(Cl)nc45)ncc3c2)c1`, in series [2], the Activity is 96.5%. Also, the IC50 in [3] was greater than 5000 nM.

`COc1cc(OC)cc(-c2ccc3nc(Sc4ccnc(Cl)n4)ncc3c2)c1`: the Activity in [2] was 82.6%. Besides, the IC50 in series [3] is greater than 5000 nM.

Turning to `COc1cc(OC)cc(-c2ccc3nc(Nc4nc(C)ccc4[N+](=O)[O-])ncc3c2)c1`, the Activity in series [2] was 53.6%. Moreover, the IC50 in series [3] is greater than 5000 nM.

Regarding `COc1cc(OC)cc(-c2ccc3nc(Nc4nc(Cl)ccc4[N+](=O)[O-])ncc3c2)c1`, the half-maximal effective concentration (EC50) in series [1] is greater than 10000 nM; in [6], greater than 10000 nM; in series [7], greater than 10000 nM; in series [8] it was 30 nM; in [9] it was 5 nM. Also, the IC50 in [10] is greater than 5000 nM; in series [11] it was 4.48 nM; in [12], greater than 5000 nM; in series [3], less than 0.5 nM; in series [13], greater than 5000 nM; in [14] it was greater than 5000 nM. Also, the IC50 in [16] is greater than 5000 nM; in [17], greater than 5000 nM; in series [18] it was 4.5 nM. For the same compound, the Ki in series [15] was determined as 37.9 nM.

Regarding `COc1cc(OC)c(Cl)c(-c2ccc3nc(Nc4nc(Cl)ccc4[N+](=O)[O-])ncc3c2)c1Cl`, the IC50 in series [10] is 490 nM; in series [11] it was 18.2 nM; in series [3] it was less than 0.5 nM; in [13] it was greater than 5000 nM; in series [17], greater than 5000 nM; in [18], 1.2 nM. The EC50 in series [6] came to 1290 nM; in [7], 1430 nM; in series [8] it was 52 nM. The Ki in series [15] was found to be 5.7 nM.

On to `COc1cc(OC)cc(-c2ccc3nc(Sc4nc(Cl)ncc4F)ncc3c2)c1`, for which the Activity in series [2] was 96.5%. Moreover, in series [3], the IC50 is greater than 5000 nM.

With `COc1cc(OC)cc(-c2ccc3nc(Sc4nc(Cl)ccc4[N+](=O)[O-])ncc3c2)c1`, the IC50 in series [3] came to 4450 nM.

For the compound `COc1cc(OC)cc(-c2ccc3nc(Nc4ncccc4[N+](=O)[O-])ncc3c2)c1`, the Activity in series [2] came out at 92.1%. Further, in series [3], the IC50 was greater than 5000 nM.

In the case of `COc1cc(OC)cc(-c2ccc3ncncc3c2)c1`, the Activity in [2] was found to be 93.1%. Further, the IC50 in series [3] was greater than 5000 nM.

These data come from ChEMBL document CHEMBL5543146 (J Med Chem, 2024).
